{"source": "ChEMBL document CHEMBL1201862", "about": "“PubChem BioAssay data set” (2004)", "test_in_all_cases": "NCI anticancer screen, dose series, 48 h", "key": {"BT-549": {"system": "BT-549"}, "SN12C": {"system": "SN12C"}, "A498": {"system": "A498"}, "SR": {"system": "SR"}, "UACC-62": {"system": "UACC-62"}, "OVCAR-3": {"system": "OVCAR-3"}, "NCI-H23": {"system": "NCI-H23"}, "ACHN": {"system": "ACHN"}, "MCF7": {"system": "MCF7"}, "OVCAR-8": {"system": "OVCAR-8"}, "KM12": {"system": "KM12"}, "RPMI-8226": {"system": "RPMI-8226"}, "SK-MEL-2": {"system": "SK-MEL-2"}, "HCT-116": {"system": "HCT-116"}, "MDA-MB-231": {"system": "MDA-MB-231"}, "IGROV-1": {"system": "IGROV-1"}, "U-251": {"system": "U-251"}, "NCI-H522": {"system": "NCI-H522"}, "MDA-MB-435": {"system": "MDA-MB-435"}, "OVCAR-4": {"system": "OVCAR-4"}, "OVCAR-5": {"system": "OVCAR-5"}, "SK-OV-3": {"system": "SK-OV-3"}, "NCI-H460": {"system": "NCI-H460"}, "HCT-15": {"system": "HCT-15"}, "CAKI-1": {"system": "CAKI-1"}, "SF-295": {"system": "SF-295"}, "EKVX": {"system": "EKVX"}, "SNB-75": {"system": "SNB-75"}, "A549": {"system": "A549"}, "CCRF-CEM": {"system": "CCRF-CEM"}, "MOLT-4": {"system": "MOLT-4"}, "DU-145": {"system": "DU-145"}, "NCI-H226": {"system": "NCI-H226"}, "HL-60": {"system": "HL-60"}, "T47D": {"system": "T47D"}, "SK-MEL-28": {"system": "SK-MEL-28"}, "HCC 2998": {"system": "HCC 2998"}, "SW-620": {"system": "SW-620"}, "HOP-62": {"system": "HOP-62"}, "RXF 393": {"system": "RXF 393"}, "Malme-3M": {"system": "Malme-3M"}, "UACC-257": {"system": "UACC-257"}, "TK-10": {"system": "TK-10"}, "LOX IMVI": {"system": "LOX IMVI"}, "COLO 205": {"system": "COLO 205"}, "SK-MEL-5": {"system": "SK-MEL-5"}, "786-0": {"system": "786-0"}, "HT-29": {"system": "HT-29"}, "M14": {"system": "M14"}, "K562": {"system": "K562"}, "SF-268": {"system": "SF-268"}, "PC-3": {"system": "PC-3"}, "UO-31": {"system": "UO-31"}, "MDA-N": {"system": "MDA-N"}, "SF-539": {"system": "SF-539"}, "Hs-578T": {"system": "Hs-578T"}, "NCI/ADR-RES": {"system": "NCI/ADR-RES"}}, "note": "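Growth conditions: 96-well plates. Treatment: test compound, 48 hours, 5 concentrations. Analysis: linear interpolation between bracketing concentrations; unreached endpoints set to highest concentration. At the GI50, growth is halved.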 Calls of active or inactive are those of the source. Cut-off read from the data, not from the text of the source: active = GI50 up to about 1.1 µM and inactive = higher. *1 amine or outer side, *2 acyl side, *3 side chain or, on linkers, in order; H or OH if unused. Where a SMILES comes first, the peptide text is derived from it. Bridges are numbered along the chain shown (N, C = ends). Roman numbers before positions name the chains, in order. [ ]: non-standard residue; d: D form. Actinocin(9to1) = Cc1c2oc3c(C)ccc(C(=O)[*:1])c3nc-2c(C(=O)[*:2])c(N)c1=O; NMeV = CN[CH](C(=O)O)C(C)C; Sar = CNCC(=O)O", "data": [{"smiles": "Cc1c2oc3c(C)ccc(C(=O)NC4C(=O)NC(Cc5ccccc5)C(=O)N5CCCC5C(=O)N(C)CC(=O)N(C)C(C(C)C)C(=O)OC4C)c3nc-2c(C(=O)NC2C(=O)NC(Cc3ccccc3)C(=O)N3CCCC3C(=O)N(C)CC(=O)N(C)C(C(C)C)C(=O)OC2C)c(N)c1=O", "note": "(configuration not stated) (I: TFP[Sar][NMeV] / II: TFP[Sar][NMeV]; ester I:1-I:C, II:1-II:C; linker I:N-II:N via Actinocin(9to1); configuration not given here)", "values": [{"measurement": "GI50", "setting": "BT-549", "value": "10 nM (active)"}, {"measurement": "GI50", "setting": "SN12C", "value": "< 1 nM (active)"}, {"measurement": "GI50", "setting": "A498", "value": "2.04 nM (active)"}, {"measurement": "GI50", "setting": "SR", "value": "< 1 nM (active)"}, {"measurement": "GI50", "setting": "UACC-62", "value": "< 1 nM (active)"}, {"measurement": "GI50", "setting": "OVCAR-3", "value": "< 1 nM (active)"}, {"measurement": "GI50", "setting": "NCI-H23", "value": "< 1 nM (active)"}, {"measurement": "GI50", "setting": "ACHN", "value": "< 1 nM (active)"}, {"measurement": "GI50", "setting": "MCF7", "value": "< 1 nM (active)"}, {"measurement": "GI50", "setting": "OVCAR-8", "value": "< 1 nM (active)"}, {"measurement": "GI50", "setting": "KM12", "value": "< 1 nM (active)"}, {"measurement": "GI50", "setting": "RPMI-8226", "value": "< 1 nM (active)"}, {"measurement": "GI50", "setting": "SK-MEL-2", "value": "< 1 nM (active)"}, {"measurement": "GI50", "setting": "HCT-116", "value": "< 1 nM (active)"}, {"measurement": "GI50", "setting": "MDA-MB-231", "value": "22 nM (active)"}, {"measurement": "GI50", "setting": "IGROV-1", "value": "< 1 nM (active)"}, {"measurement": "GI50", "setting": "U-251", "value": "< 1 nM (active)"}, {"measurement": "GI50", "setting": "NCI-H522", "value": "< 1 nM (active)"}, {"measurement": "GI50", "setting": "MDA-MB-435", "value": "< 1 nM (active)"}, {"measurement": "GI50", "setting": "OVCAR-4", "value": "17.1 nM (active)"}, {"measurement": "GI50", "setting": "OVCAR-5", "value": "4.84 nM (active)"}, {"measurement": "GI50", "setting": "SK-OV-3", "value": "< 1 nM (active)"}, {"measurement": "GI50", "setting": "NCI-H460", "value": "< 1 nM (active)"}, {"measurement": "GI50", "setting": "HCT-15", "value": 29.6, "unit": "nM"}, {"measurement": "GI50", "setting": "CAKI-1", "value": "1.51 nM (active)"}, {"measurement": "GI50", "setting": "SF-295", "value": "< 1 nM (active)"}, {"measurement": "GI50", "setting": "EKVX", "value": "136 nM (active)"}, {"measurement": "GI50", "setting": "SNB-75", "value": "5.77 nM (active)"}, {"measurement": "GI50", "setting": "A549", "value": "< 1 nM (active)"}, {"measurement": "GI50", "setting": "CCRF-CEM", "value": "< 1 nM (active)"}, {"measurement": "GI50", "setting": "MOLT-4", "value": "< 1 nM (active)"}, {"measurement": "GI50", "setting": "DU-145", "value": "< 1 nM (active)"}, {"measurement": "GI50", "setting": "NCI-H226", "value": "< 1 nM (active)"}, {"measurement": "GI50", "setting": "HL-60", "value": "< 1 nM (active)"}, {"measurement": "GI50", "setting": "T47D", "value": "< 1 nM (active)"}, {"measurement": "GI50", "setting": "SK-MEL-28", "value": "< 1 nM (active)"}, {"measurement": "GI50", "setting": "HCC 2998", "value": "< 1 nM (active)"}, {"measurement": "GI50", "setting": "SW-620", "value": "< 1 nM (active)"}, {"measurement": "GI50", "setting": "HOP-62", "value": "11.9 nM (active)"}, {"measurement": "GI50", "setting": "RXF 393", "value": "13.5 nM (active)"}, {"measurement": "GI50", "setting": "Malme-3M", "value": "< 1 nM (active)"}, {"measurement": "GI50", "setting": "UACC-257", "value": "< 1 nM (active)"}, {"measurement": "GI50", "setting": "TK-10", "value": "21 nM (active)"}, {"measurement": "GI50", "setting": "LOX IMVI", "value": "< 1 nM (active)"}, {"measurement": "GI50", "setting": "COLO 205", "value": "< 1 nM (active)"}, {"measurement": "GI50", "setting": "SK-MEL-5", "value": "< 1 nM (active)"}, {"measurement": "GI50", "setting": "786-0", "value": "< 1 nM (active)"}, {"measurement": "GI50", "setting": "HT-29", "value": "< 1 nM (active)"}, {"measurement": "GI50", "setting": "M14", "value": "10.5 nM (active)"}, {"measurement": "GI50", "setting": "K562", "value": "< 1 nM (active)"}, {"measurement": "GI50", "setting": "SF-268", "value": "< 1 nM (active)"}, {"measurement": "GI50", "setting": "PC-3", "value": "< 1 nM (active)"}, {"measurement": "GI50", "setting": "UO-31", "value": "3.54 nM (active)"}, {"measurement": "GI50", "setting": "MDA-N", "value": "1.62 nM (active)"}, {"measurement": "GI50", "setting": "SF-539", "value": "123 nM (active)"}, {"measurement": "GI50", "setting": "Hs-578T", "value": "1.1 nM (active)"}, {"measurement": "GI50", "setting": "NCI/ADR-RES", "value": "439 nM (active)"}]}]}
